One may read the EC50 as the concentration needed to bring the measured effect to its halfway point.

One test relates to parasites (ring stage, in human red blood cell culture). Briefly: Parasite LDH growth assay (antiparasite potency, Parasite Assay). It is filed as cell-based, Plasmodium falciparum. The settings on record: 0.7% rings, 2% haematocrit, 72 hours at 37° C., LDH readout of parasite growth. In short, it runs like this: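 Ring-stage parasites at 0.7% parasitemia and 2% haematocrit, in RPMI-Hepes/bicarbonate with 5% heat-inactivated human serum and 0.5% albumax, were added to compound-containing medium. Cultures grew 72 h at 37 °C in gassed humidified boxes. Plates were then frozen overnight at −80 °C, thawed 4 h, and growth was measured by LDH assay.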
As to “(4R)-4-(4,4-diethyl-2-imino-6- oxo-hexahydropyrimidin-1- yl)-N-[2-(hydroxymethyl)- methyl-3H-benzofuran-3- yl]chromane-6-carboxamide [Example 176B]”, the EC50 was found to be 7.8 nM. In other words, the single-digit nanomolar range.

Staying with this test, now noted: Plasmodium falciparum, Erythrocyte, 72 h, 0.7% rings, 2% haematocrit, 72 hours at 37° C., LDH readout of parasite growth.
Turning to `CCC1(CC)CC(=O)N([C@H]2c3cc(C(=O)N[C@@H]4c5ccccc5OC(C)(C)[C@H]4O)ccc3OC[C@H]2COC)C(=N)N1` [Example 298, (3R,4R)-4-(4,4-diethyl-2-imino-6-oxotetrahydropyrimidin-1(2H)-yl)-N-((3S,4R)-3-hydroxy-2,2-dimethylchroman-4-yl)-3-(methoxymethyl)chromane-6-carboxamide], the EC50 worked out at 0.5 nM.
`CCC1(CC)CC(=O)N([C@H]2c3cc(C(=O)N[C@@H]4c5ccccc5OC(C)(C)[C@H]4O)ccc3OC[C@@H]2COC)C(=N)N1` [Example 299, (3S,4R)-4-(4,4-diethyl-2-imino-6-oxo-hexahydropyrimidin-l-yl)-N-[(3S,4R)-3-hydroxy-2,2-dimethyl-chroman-4-yl]-3-(methoxymethyl)chromane-6-carboxamide] came in with an EC50 of 0.8 nM.
As for `CC[C@]1(C)CC(=O)N([C@@H]2C[C@@H](COC(F)F)Oc3ccc(C(=O)N[C@@H]4c5ccccc5OC[C@@]4(C)O)cc32)C(=N)N1` [Example 300, (2S,4R)-2-(difluoromethoxymethyl)-4-[(4R)-4-ethyl-2-imino-4-methyl-6-oxo-hexahydropyrimidin-1-yl]-N-[(3S,4R)-3-hydroxy-3-methyl-chroman-4-yl]chromane-6-carboxamide], the EC50 is 3.8 nM.
Still for that read-out and setting: in the case of `CCC1(CC)CC(=O)N([C@H]2c3cc(C(=O)N[C@@H]4c5cc(C#N)ccc5OC[C@@]4(C)O)ccc3OC[C@H]2COC)C(=N)N1` [Example 301, (3R,4R)-N-[(3S,4R)-6-cyano-3-hydroxy-3-methyl-chroman-4-yl]-4-(4,4-diethyl-2-imino-6-oxo-hexahydropyrimidin-1-yl)-3-(methoxymethyl)chromane-6-carboxamide] it was 1.8 nM; in that of `CCC1(CC)CC(=O)N(C2CC(C(=O)N(C)C)Oc3ccc(C(=O)N[C@H]4CC(C)(C)Oc5ccccc54)cc32)C(=N)N1` (stereo partly drawn) [Example 302, 4-(4,4-diethyl-2-imino-6-oxo-hexahydropyrimidin-1-yl)-N6-[(4S)-2,2-dimethylchroman-4-yl]-N2,N2-dimethyl-chromane-2,6-dicarboxamide], 1.7 nM; in that of `CCC1(CC)CC(=O)N(C2CC(C(=O)N(C)C)Oc3ccc(C(=O)N[C@@H]4c5ccccc5OC[C@@]4(C)O)cc32)C(=N)N1` (stereo partly drawn) [Example 303, 4-(4,4-diethyl-2-imino-6-oxo-hexahydropyrimidin-1-yl)-N6-[(3S,4R)-3-hydroxy-3-methyl-chroman-4-yl]-N2,N2-dimethyl-chromane-2,6-dicarboxamide], 50.8 nM.
Turning to `CCC1(CC)CC(=O)N([C@H]2c3cc(C(=O)N[C@H]4CC(C)(C)Oc5ccccc54)ccc3OC2(COC)COC)C(=N)N1` [Example 304, (3S)-3-(4,4-diethyl-2-imino-6-oxo-hexahydropyrimidin-1-yl)-N-[(4S)-2,2-dimethylchroman-4-yl]-2,2-bis(methoxymethyl)-3H-benzofuran-5-carboxamide], a half-maximal effect (EC50) was put at 5.6 nM.
Same read-out and setting: the value for `CCC1(CC)CC(=O)N(C2c3cc(C(=O)N[C@@H]4c5ccccc5OC[C@@]4(C)O)ccc3OC2(COC)COC)C(=N)N1` (stereo partly drawn) [Example 305, 3-(4,4-diethyl-2-imino-6-oxo-hexahydropyrimidin-l-yl)-N-[(3S,4R)-3-hydroxy-3-methyl-chroman-4-yl]-2,2-bis(methoxymethyl)-3H-benzofuran-5-carboxamide] was 75.8 nM; that for `CCC1(CC)CC(=O)N(C2CC(C(=O)N(C)C)Oc3ccc(C(=O)N[C@@H]4c5ccccc5OC(C)(C)[C@H]4O)cc32)C(=N)N1` (stereo partly drawn) [Example 306, 4-(4,4-diethyl-2-imino-6-oxo-hexahydropyrimidin-1-yl)-N6-[(3S,4R)-3-hydroxy-2,2-dimethyl-chroman-4-yl]-N2,N2-dimethyl-chromane-2,6-dicarboxamide] was 27.4 nM; that for `CCC1(CC)CC(=O)N([C@H]2c3cc(C(=O)N[C@@H]4c5ccccc5OC(C)(C)[C@H]4O)ccc3OC2(COC)COC)C(=N)N1` [Example 307] was 3.2 nM.
The compound `CCC1(CC)CC(=O)N([C@@H]2C[C@@H](CCCCCCN)Oc3ccc(C(=O)N[C@H]4CC(C)(C)Oc5ccccc54)cc32)C(=N)N1` [Example 308, (2R,4R)-2-(6-aminohexyl)-4-(4,4-diethyl-2-imino-6-oxo-hexahydropyrimidin-1-yl)-N-[(4S)-2,2-dimethylchroman-4-yl]chromane-6-carboxamide] returned an EC50 of 40.5 nM.
Compound `CCC1(CC)CC(=O)N([C@@H]2C[C@@H](CCCCCCNC(C)=O)Oc3ccc(C(=O)N[C@H]4CC(C)(C)Oc5ccccc54)cc32)C(=N)N1` [Example 309, (2R,4R)-2-(6-acetamidohexyl)-4-(4,4-diethyl-2-imino-6-oxo-hexahydropyrimidin-l-yl)-N-[(4S)-2,2-dimethylchroman-4-yl]chromane-6-carboxamide] showed an EC50 of 3.2 nM.
The compound `CCC1(CC)CC(=O)N([C@@H]2C[C@@H](COCCOCCOCCN)Oc3ccc(C(=O)N[C@H]4CC(C)(C)Oc5ccccc54)cc32)C(=N)N1` [Example 310, (2S,4R)-2-[2-[2-(2-aminoethoxy)ethoxy]ethoxymethyl]-4-(4,4-diethyl-2-imino-6-oxo-hexahydropyrimidin-1-yl)-N-[(4S)-2,2-dimethylchroman-4-yl]chromane-6-carboxamide] had an EC50 of 211 nM.
As to `CCC1(CC)CC(=O)N([C@@H]2C[C@@H](CCCCCCNC(=O)OC(C)(C)C)Oc3ccc(C(=O)N[C@H]4CC(C)(C)Oc5ccccc54)cc32)C(=N)N1` [Example 311, tert-butyl N-[6-[(2R,4R)-4-(4,4-diethyl-2-imino-6-oxo-hexahydropyrimidin-1-yl)-6-[[(4S)-2,2-dimethylchroman-4-yl]carbamoyl]chroman-2-yl]hexyl]carbamate], the EC50 worked out at 2.4 nM.
On the same count and under the same terms, the value for `CCC1(CC)CC(=O)N([C@@H]2C[C@@H](COCCOCCOCCNC(C)=O)Oc3ccc(C(=O)N[C@H]4CC(C)(C)Oc5ccccc54)cc32)C(=N)N1` [Example 312, (2S,4R)-2-[2-[2-(2-acetamidoethoxy)ethoxy]ethoxymethyl] -4-(4,4-diethyl-2-imino-6-oxo-hexahydropyrimidin-1-yl)-N-[(4S)-2,2-dimethylchroman-4-yl]chromane-6-carboxamide] was 53.9 nM.
Still for that read-out and setting: in the case of `CCC1(CC)CC(=O)N([C@H]2C[C@H](COCCOCCOCCNC(=O)OC(C)(C)C)Oc3ccc(C(=O)N[C@H]4CC(C)(C)Oc5ccccc54)cc32)C(=N)N1` [Example 313, tert-butyl N-[2-[2-[2-[[(2R,4S)-4-(4,4-diethyl-2-imino-6-oxo-hexahydropyrimidin-l-yl)-6-[[(4S)-2,2-dimethylchroman-4-yl]carbamoyl]chroman-2-yl]methoxy]ethoxy]ethoxy]ethyl]carbamate] it was 260 nM; in that of `CCC1(CC)CC(=O)N([C@@H]2C[C@@H](COCCOCCOCCNC(=O)OC(C)(C)C)Oc3ccc(C(=O)N[C@H]4CC(C)(C)Oc5ccccc54)cc32)C(=N)N1` [Example 314, tert-butyl N-[2-[2-[2-[[(2S,4R)-4-(4,4-diethyl-2-imino-6-oxo-hexahydropyrimidin-l-yl)-6-[[(4S)-2,2-dimethylchroman-4-yl]carbamoyl]chroman-2-yl]methoxy]ethoxy]ethoxy]ethyl]carbamate], 7.3 nM.

The target of another test is T1, PMX (plasmepsin X) (Plasmodium falciparum, UniProt Q8IAS0).
T1 construct: endogenous in cells
T1 sequence (Q8IAS0 222-573): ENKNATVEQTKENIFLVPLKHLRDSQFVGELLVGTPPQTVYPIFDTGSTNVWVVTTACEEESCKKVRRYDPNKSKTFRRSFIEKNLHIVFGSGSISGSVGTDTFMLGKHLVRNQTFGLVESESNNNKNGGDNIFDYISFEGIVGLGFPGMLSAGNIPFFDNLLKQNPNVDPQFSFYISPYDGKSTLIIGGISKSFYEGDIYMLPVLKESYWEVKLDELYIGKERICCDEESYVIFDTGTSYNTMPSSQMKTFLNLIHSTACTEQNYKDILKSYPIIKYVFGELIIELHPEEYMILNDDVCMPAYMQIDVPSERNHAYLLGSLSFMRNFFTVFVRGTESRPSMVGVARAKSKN
Assay: not given
The settings on record: negative control, literature (Salmon et al. 2001); cited from earlier work.
As for `CC(C)C[C@H](NC(=O)[C@H]1O[C@@H]1C(=O)O)C(=O)NCCCCN=C(N)N` [Example E64], the SERAS processing entry is on record as “does not affect SERAS processing”.

In the next test the test system is PMIX (plasmepsin IX). Put plainly: Inhibition of PMIX function in parasite extracts: cleavage of PMIX substrates RAP1 and ASP, and PMIX autoprocessing. It is filed as cell-based, P. falciparum. The settings on record: treated parasites. The procedure:
To confirm that Example 1 was a dual inhibitor of PMX and PMIX function, the ability of this compound to inhibit cleavage of the known PMIX substrate Rhoptry Associated Protein 1 (RAP1) in parasite extracts was tested (Pino et al., 2017). RAP1 is a merozoite rhoptry protein that is localized to the parasitophorous vacuole after invasion and processed by both PMIX and SUB1 (Pino et al., 2017). […] RAP1 was not released into the parasite supernatant because it was deposited in the parasitophorous vacuole during the invasion process (Baldi, D., Andrews, K., Waller, R., Roos, D., Howard, R., Crabb, B. and Cowman, A. (2000)). RAP1 controls rhoptry targeting of RAP2 in the malaria parasite Plasmodium falciparum. Embo Journal 19, 2435-2443.
The development of Example 1 as a PMIX/PMX dual inhibitor of the P. falciparum parasite has allowed for the analysis of the function of these aspartic acid proteases. To do this, PMIX was processed to a 55 kDa (p55) protein and this was not inhibited by E64.
As for `CC(C)C[C@H](NC(=O)[C@H]1O[C@@H]1C(=O)O)C(=O)NCCCCN=C(N)N` [Example E64], the “ASP cleavage (p87 to p47) by PMIX” value was “processed into a 47 kDa polypeptide (p47)” and the “PMIX processing to 55 kDa (p55) protein (autocatalytic cleavage)” value was “not inhibited”.

Still in this test, the particulars now being: treated parasites / merozoites.
As for `CC(C)C[C@H](NC(=O)[C@H]1O[C@@H]1C(=O)O)C(=O)NCCCCN=C(N)N` [Example E64], the “RAP1 processing (p87 to p82 and p69) by PMIX and SUB1” value was “processed normally by PMIX and SUB1”.
